Data published in ChEMBL document CHEMBL4834394, “Neobulgarones Revisited: Anti and Syn Bianthrones from an Australian Mud Dauber Wasp Nest-Associated Fungus, Penicillium sp. CMB-MD22” (J Nat Prod, 2021).
The source made the active and inactive calls. The rule behind the calls is not given here.

How the values were obtained:
[1] = tested on: Staphylococcus aureus; assay: Antibacterial activity against Staphylococcus aureus ATCC 25923 assessed as inhibition of bacterial growth incubated for 24 hrs; type: functional, organism-based; conditions: ATCC 25923, 24 h
[2] = tested on: Escherichia coli; assay: Antibacterial activity against Escherichia coli ATCC 11775 assessed as inhibition of bacterial growth incubated for 24 hrs; type: functional, organism-based; conditions: ATCC 11775, 24 h
[3] = tested on: Candida albicans; assay: Antifungal activity against Candida albicans ATCC 10231 assessed as inhibition of fungal growth incubated for 24 hrs; type: functional, organism-based; conditions: ATCC 10231, 24 h
[4] = tested on: SW-620; assay: Cytotoxicity against human SW620 cells after 48 hrs by MTT assay; type: functional, cell-based
[5] = molecular target: ATP-dependent translocase ABCB1 (Homo sapiens, UniProt P08183); assay: Reversal of P-gp mediated doxorubicin resistance in human SW620 Ad300 cells overexpressing P-gp at 30 uM after 48 hrs by MTT assay; type: cell-based; conditions: sw-620, 48 h
ATP-dependent translocase ABCB1, sequence (P08183 whole entry): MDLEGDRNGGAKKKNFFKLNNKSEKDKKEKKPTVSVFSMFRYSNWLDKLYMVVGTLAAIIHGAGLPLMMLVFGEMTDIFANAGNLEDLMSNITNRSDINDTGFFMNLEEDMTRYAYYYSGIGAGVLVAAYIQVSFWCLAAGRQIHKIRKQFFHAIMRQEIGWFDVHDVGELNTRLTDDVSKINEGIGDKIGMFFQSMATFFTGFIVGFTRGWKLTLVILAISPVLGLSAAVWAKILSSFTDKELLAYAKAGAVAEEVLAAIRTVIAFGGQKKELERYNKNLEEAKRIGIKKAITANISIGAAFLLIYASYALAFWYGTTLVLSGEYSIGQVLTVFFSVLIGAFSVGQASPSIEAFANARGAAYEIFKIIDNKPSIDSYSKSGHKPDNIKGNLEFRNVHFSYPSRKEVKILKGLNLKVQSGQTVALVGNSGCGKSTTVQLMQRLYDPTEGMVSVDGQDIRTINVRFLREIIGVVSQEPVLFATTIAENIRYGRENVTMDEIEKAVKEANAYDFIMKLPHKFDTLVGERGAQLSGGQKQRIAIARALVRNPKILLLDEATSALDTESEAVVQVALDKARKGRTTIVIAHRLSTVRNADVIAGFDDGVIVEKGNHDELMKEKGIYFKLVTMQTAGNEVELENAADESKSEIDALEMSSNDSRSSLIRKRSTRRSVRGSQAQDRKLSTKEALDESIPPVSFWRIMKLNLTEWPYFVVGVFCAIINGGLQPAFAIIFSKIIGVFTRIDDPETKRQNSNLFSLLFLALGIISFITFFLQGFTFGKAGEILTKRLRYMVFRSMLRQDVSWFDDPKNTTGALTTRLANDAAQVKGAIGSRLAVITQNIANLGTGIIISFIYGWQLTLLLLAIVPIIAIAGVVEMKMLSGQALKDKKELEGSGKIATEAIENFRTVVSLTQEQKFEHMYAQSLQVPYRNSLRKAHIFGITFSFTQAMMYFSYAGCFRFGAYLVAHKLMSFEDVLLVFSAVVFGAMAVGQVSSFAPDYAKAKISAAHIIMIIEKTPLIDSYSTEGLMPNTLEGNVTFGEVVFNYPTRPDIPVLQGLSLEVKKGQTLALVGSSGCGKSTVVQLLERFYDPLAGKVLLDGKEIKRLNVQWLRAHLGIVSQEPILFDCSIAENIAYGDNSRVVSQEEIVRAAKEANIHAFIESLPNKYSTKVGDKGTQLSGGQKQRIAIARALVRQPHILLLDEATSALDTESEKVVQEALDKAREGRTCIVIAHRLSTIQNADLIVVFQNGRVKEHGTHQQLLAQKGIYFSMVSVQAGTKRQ

| Compound | IC50 [1] [µM] | IC50 [2] [µM] | IC50 [3] [µM] | Activity [4] | Activity [5] |
| --- | --- | --- | --- | --- | --- |
| COc1cc(C)cc2c1C(=O)c1c(O)cc(O)c(Cl)c1[C@@H]2[C@H]1c2cc(C)cc(OC)c2C(=O)c2c(O)cc(O)c(Cl)c21 | > 30 | > 30 | > 30 | inactive | Not Active |
| COc1cc(C)cc2c1C(=O)c1c(O)cc(O)c(Cl)c1C2O (stereo not given) | > 30 | > 30 | > 30 | inactive | Not Active |
| COc1cc(C)cc2c1C(=O)c1c(cc(O)c(OC)c1O)[C@H]2[C@@H]1c2cc(C)cc(OC)c2C(=O)c2c(O)cc(O)c(Cl)c21 | > 30 | > 30 | > 30 | inactive | Not Active |
| COc1cc(CO)cc2c1C(=O)c1c(cc(O)c(OC)c1O)C2=O | > 30 | > 30 | > 30 | inactive | Not Active |
| COc1cc(C)cc2c1C(=O)c1c(O)cc(O)cc1[C@@H]2[C@@H]1c2cc(C)cc(OC)c2C(=O)c2c(O)c(OC)c(O)c(Cl)c21 | > 30 | > 30 | > 30 | inactive | Not Active |
| COc1cc(CO)cc2c1C(=O)c1c(O)cc(O)cc1C2=O [CARVIOLIN] | > 30 | > 30 | > 30 | inactive | Not Active |
| COc1cc(C)cc2c1C(=O)c1c(cc(O)c(OC)c1O)[C@@H]2[C@@H]1c2cc(C)cc(OC)c2C(=O)c2c(O)c(OC)c(O)c(Cl)c21 | > 30 | > 30 | > 30 | inactive | Not Active |
| COc1cc(C)cc2c1C(=O)c1c(O)cc(O)cc1C2=O [1-O-METHYLEMODIN] | > 30 | > 30 | > 30 | inactive | Not Active |
| COc1cc(C)cc2c1C(=O)c1c(O)c(OC)c(O)c(Cl)c1[C@@H]2[C@H]1c2cc(C)cc(OC)c2C(=O)c2c(O)cc(O)c(Cl)c21 | > 30 | > 30 | > 30 | inactive | Not Active |
| COc1cc(C)cc2c1C(=O)c1c(O)c(OC)c(O)c(Cl)c1[C@@H]2[C@@H]1c2cc(C)cc(OC)c2C(=O)c2c(O)c(OC)c(O)c(Cl)c21 | > 30 | > 30 | > 30 | inactive | Not Active |
| COc1cc(C)cc2c1C(=O)c1c(O)cc(O)c(Cl)c1[C@@H]2[C@@H]1c2cc(C)cc(OC)c2C(=O)c2c(O)c(OC)c(O)c(Cl)c21 | > 30 | > 30 | > 30 | inactive | Not Active |
| COc1cc(C)cc2c1C(=O)c1c(O)c(OC)c(O)c(Cl)c1[C@@H]2[C@H]1c2cc(C)cc(OC)c2C(=O)c2c(O)c(OC)c(O)c(Cl)c21 | > 30 | > 30 | > 30 | inactive | Not Active |
| COc1cc(C)cc2c1C(=O)c1c(cc(O)c(OC)c1O)[C@@H]2[C@@H]1c2cc(C)cc(OC)c2C(=O)c2c(O)cc(O)c(Cl)c21 | > 30 | > 30 | > 30 | inactive | Not Active |
| COc1cc(C)cc2c1C(=O)c1c(cc(O)c(OC)c1O)C2=O | > 30 | > 30 | > 30 | inactive | Not Active |
| COc1cc(C)cc2c1C(=O)c1c(O)cc(O)c(Cl)c1[C@@H]2[C@@H]1c2cc(C)cc(OC)c2C(=O)c2c(O)cc(O)c(Cl)c21 | > 30 | > 30 | > 30 | inactive | Not Active |
| COc1cc(C)cc2c1C(=O)c1c(O)cc(O)cc1[C@@H]2[C@@H]1c2cc(C)cc(OC)c2C(=O)c2c(O)cc(O)c(Cl)c21 | > 30 | > 30 | > 30 | inactive | Not Active |
